# Laboratory results reported in patent US12691070B2, “Cationic lipids and preparation method thereof” (RiboX Therapeutics HK Limited, priority 2023, dated 2026).
# Legend:
# RAW 264.7 cells [1] = assay: In vitro toxicity (CellTiter-Glo cell viability), RAW 264.7; format: cell-based;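 further: percent of untreated cells luminescence signal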
# Procedure, shortened: (§1)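 First, cells receive RNA-LNPs at 1 μg/mL by transfection. After 72 hours, CellTiter-Glo reagent is added per kit protocol. Luminescence is then read and converted to cell viability.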
# MCP-I = MCP-I cytokine elevation in serum; format: in vivo; details: cirRNA (SEQ ID NO: 1) LNPs, mice
# Description: 6-8 week old, female BALB/C mice were injected with 0.5 mg*kg-1 of RNA LNPs by intravenous injection. At 2 and 24 hours post injection, animals were bled and sera concentrations of MCP-I were determined by an immunoassay (Luminex).
# [2] = test system: Alanine Aminotransferase (ALT); assay: Liver enzyme elevation in serum, ALT; format: in vivo; details: cirRNA (SEQ ID NO: 1) LNPs, BALB/C mice, intravenous 0.5 MPK
# Description: (§2) 6-8 week old, female BALB/C mice were injected with 0.5 mg*kg-1 of RNA LNPs by intravenous injection. At 2 and 24 hours post injection, animals were bled and sera concentrations of Alanine Aminotransferase (ALT) and Aspartate Aminotransferase (AST) were determined by a blood chemistry analyzer.
# Hep G2 cells [3] = assay: In vitro toxicity (CellTiter-Glo cell viability), Hep G2; format: cell-based;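 further: percent of untreated cells luminescence signal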
# Procedure, shortened: as §1
# [4] = test system: Aspartate Aminotransferase (AST); assay: Liver enzyme elevation in serum, AST; format: in vivo; details: cirRNA (SEQ ID NO: 1) LNPs, BALB/C mice, intravenous 0.5 MPK
# Description: as §2
# RAW 264.7 cells [5] = assay: In vitro expression of firefly-luciferase, RAW 264.7; format: cell-based
# Procedure, shortened: (§3)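 Transfection used 100 ng/mL luciferase-encoding RNA-LNPs; activity in lysates was determined at 72 h.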
# [6] = LNP size and polydispersity index (PDI) by dynamic light scattering; format: physicochemical; details: for Size: in nm (unit assumed)
# Procedure, shortened: (§4)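 LNPs of ionizable lipid/DSPC/cholesterol/DMG-PEG 2000 (50:10:38.5:1.5) made by microfluidic mixing of luciferase circRNA or mRNA in pH 4.5 acetate with lipids in ethanol (3:1, 12 ml/min), ionizable lipid:nucleotide 15 or 6, then dialyzed against PBS. Size, PDI (DLS) and zeta potential on Zetasizer; encapsulation by Ribogreen ± Triton X-100.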
# BALB/C mice [7] = assay: Local tolerance determination by footpad injection; format: in vivo; details: cirRNA (SEQ ID NO: 1) LNP, 0.175 mg*kg-1 subcutaneous into the footpad, 24 hours post minus prior
# Description: 6-8 week old, female BALB/C mice were injected with 0.175 mg*kg-1 RNA LNPs by subcutaneous injection into the footpad. Prior to, and 24 hours post injections, injected footpad thickness was determined by a caliper.
# BALB/C mice [8] = assay: In vivo expression, whole-body luminescence (IVIS)
# Description: 6-8 week old, female BALB/C mice were injected with 0.05 mg*kg-1 of RNA-LNPs encoding for firefly-luciferase by intravenous injection. At 6 hours post injection, animals were intraperitoneally injected with 15 mg/ml of Luciferin substrate and whole-body luminescence was determined by a bioluminescent in vivo imaging system (IVIS).
# Hep G2 cells [9] = assay: In vitro expression of firefly-luciferase, Hep G2; format: cell-based
# Procedure, shortened: as §3
# [10] = LNP zeta potential (Zetasizer); format: physicochemical
# Procedure, shortened: as §4
# [11] = RNA encapsulation efficacy by Quant-IT Ribogreen kit; format: physicochemical; details: for Encapsulation Efficiency %: LNP with cirRNA (SEQ ID NO: 1); for Encapsulation Efficiency: LNP with mRNA (SEQ ID NO: 2)
# Procedure, shortened: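 Encapsulation efficacy came from Ribogreen fluorescence of LNPs compared with Triton X-100-lysed LNPs. The particles carried luciferase-encoding circular or linear RNA at an ionizable lipid:ribonucleotide ratio of 15 or 6.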
# [12] = cirRNA (SEQ ID NO: 1) LNPs, RAW 264.7 cells
# [13] = mRNA (SEQ ID NO: 2) LNP, 1 μg/mL, 72 hours post transfection
# [14] = cirRNA (SEQ ID NO: 1) LNPs, Hep G2 cells
# [15] = cirRNA (SEQ ID NO: 1) LNPs, firefly-luciferase luminescence, RAW 264.7 cells
# [16] = mRNA (SEQ ID NO: 2) LNP, 100 ng/mL, 72 hours post transfection, luciferase activity
# [17] = cirRNA (SEQ ID NO: 1) LNPs, BALB/C mice
# [18] = mRNA (SEQ ID NO: 2) LNP, 0.05 mg*kg-1 intravenous, 6 hours post injection
# [19] = cirRNA (SEQ ID NO: 1) LNPs, firefly-luciferase luminescence, Hep G2 cells
MCP-I in Sera 2 hours After 0.5 MPK Injection (MCP-I) [pg/mL],MCP-I in Sera 24 hours After 0.5 MPK Injection (MCP-I) [pg/mL],PDI ([6]; LNP with cirRNA (SEQ ID NO: 1)),Size ([6]; LNP with cirRNA (SEQ ID NO: 1)),PDI ([6]; LNP with mRNA (SEQ ID NO: 2)),Size ([6]; LNP with mRNA (SEQ ID NO: 2)),Compound,In vitro Viability RAW (RAW 264.7 cells [1]; [12]) [%],In vitro Viability RAW (RAW 264.7 cells [1]; [13]) [%],ALT in Sera (IU/L) 2 hours After 0.5 MPK Injection [2] [IU/L],ALT in Sera (IU/L) 24 hours After 0.5 MPK Injection [2] [IU/L],In vitro Viability HepG2 (Hep G2 cells [3]; [14]) [%],In vitro Viability HepG2 (Hep G2 cells [3]; [13]) [%],AST in Sera (IU/L) 2 hours After 0.5 MPK Injection [4] [IU/L],AST in Sera (IU/L) 24 hours After 0.5 MPK Injection [4] [IU/L],In vitro Expression RAW (RAW 264.7 cells [5]; [15]),In vitro Expression RAW (RAW 264.7 cells [5]; [16]),"Footpad Thickness (24 h−0 h, mm) (BALB/C mice [7]) [mm]",In vivo Expression (Whole Body) (BALB/C mice [8]; [17]),In vivo Expression (Whole Body) (BALB/C mice [8]; [18]),In vitro Expression HepG2 (Hep G2 cells [9]; [19]),also measured
1322.04,922.24,0.08,96.82,0.0744,165.8,CCCCCCCCCCC(CCCCCCCC)COC(=O)CCCCCN(CCCCCC(=O)OCC(CCCCCCCC)CCCCCCCCCC)CCOC(=O)NCCN(C)C (stereo not drawn) [Lipid 170],92,82,62.53,66.47,31,124,175.67,120.57,3.14E+06,2.87E+02,0.95,3.35E+08,1.02E+09,2.91E+07,In vitro Expression HepG2 (Hep G2 cells [9]; [16]): 2.23E+08; Zeta (mV) ([10]; LNP with cirRNA (SEQ ID NO: 1)): −0.455 mV; Zeta (mV) ([10]; LNP with mRNA (SEQ ID NO: 2)): 3.233 mV; Encapsulation Efficiency % [11]: 97%; Encapsulation Efficiency [11]: 86.13%
2643.00,78.52,0.2474,94.75,0.1254,114.3,CCCCCCCCCC(=O)OCCCCCCCN(CCCCCCCCOC(=O)C(CCCCCC)CCCCCCCC)CCOC(=O)NCCN1CCCC1 (stereo not drawn) [Lipid 195],96,77,109.00,35.00,103,116,264.00,84.67,9.03E+03,1.67E+07,0.56,3.91E+07,1.63E+08,1.62E+05,In vitro Expression HepG2 (Hep G2 cells [9]; [16]): 1.23E+07; Zeta (mV) ([10]; LNP with cirRNA (SEQ ID NO: 1)): 6.123 mV; Zeta (mV) ([10]; LNP with mRNA (SEQ ID NO: 2)): 16.37 mV; Encapsulation Efficiency % [11]: 94%; Encapsulation Efficiency [11]: 75.44%
489.33,197.30,0.0364,89.57,0.1806,117.5,CCCCCCCCCC(=O)OCCCCCCCN(CCCCCCCCOC(=O)C(CCCCCC)CCCCCCCC)CCOC(=O)NCCN1CCCCC1 (stereo not drawn) [Lipid 196],91,110,80.33,93.00,103,91,202.33,180.67,1.22E+04,2.31E+06,0.44,1.86E+07,1.41E+08,5.54E+04,In vitro Expression HepG2 (Hep G2 cells [9]; [16]): 1.58E+06; Zeta (mV) ([10]; LNP with cirRNA (SEQ ID NO: 1)): 0.4256 mV; Zeta (mV) ([10]; LNP with mRNA (SEQ ID NO: 2)): −2.076 mV; Encapsulation Efficiency % [11]: 93%; Encapsulation Efficiency [11]: 91.87%
1958.67,122.47,0.14,82.64,0.07142,113.7,CCCCCCCCCC(=O)OCCCCCCCN(CCCCCCCCOC(=O)C(CCCCCC)CCCCCCCC)CCOC(=O)NCCN(C)C (stereo not drawn) [Lipid 197],0,0,106.67,171.00,88,116,215.67,237.67,1.87E+04,1.19E+07,0.08,3.04E+07,4.89E+08,6.41E+05,In vitro Expression HepG2 (Hep G2 cells [9]; [16]): 2.51E+07; Zeta (mV) ([10]; LNP with cirRNA (SEQ ID NO: 1)): 5.5 mV; Zeta (mV) ([10]; LNP with mRNA (SEQ ID NO: 2)): 13.59 mV; Encapsulation Efficiency % [11]: 96%; Encapsulation Efficiency [11]: 79.87%
2543.33,342.29,0.12,99.5,0.1109,108.8,CCCCC/C=C\CCOC(=O)CCCCCN(CCCCCC(=O)OCC(CCCCCCCC)CCCCCCCCCC)CCOC(=O)NCCN1CCCCC1 (stereo not drawn) [Lipid 245],94,89,136.50,107.33,88,118,387.00,187.67,2.68E+05,3.81E+06,0.68,2.99E+08,1.18E+08,7.24E+05,In vitro Expression HepG2 (Hep G2 cells [9]; [16]): 4.35E+06; Zeta (mV) ([10]; LNP with cirRNA (SEQ ID NO: 1)): −5.02 mV; Zeta (mV) ([10]; LNP with mRNA (SEQ ID NO: 2)): 2.004 mV; Encapsulation Efficiency % [11]: 86%; Encapsulation Efficiency [11]: 85.53%
4192.67,564.30,0.258,66.18,0.1592,101.7,CCCCC/C=C\C/C=C\CCCCCCCCN(CCCCCCCC(=O)OC(CCCCCCCC)CCCCCCCC)CCCOC(=O)NCCN(C)C [Lipid 270],120,96,253.00,79.00,95,116,477.67,220.00,9.33E+06,3.27E+06,0.65,9.90E+07,3.45E+08,9.88E+06,In vitro Expression HepG2 (Hep G2 cells [9]; [16]): 2.31E+07; Zeta (mV) ([10]; LNP with cirRNA (SEQ ID NO: 1)): 3.201 mV; Zeta (mV) ([10]; LNP with mRNA (SEQ ID NO: 2)): 6.102 mV; Encapsulation Efficiency % [11]: 95%; Encapsulation Efficiency [11]: 94.52%
